Results reported in patent US20150284362A1, “CARBAZOLE-CONTAINING AMIDES, CARBAMATES, AND UREAS AS CRYPTOCHROME MODULATORS” (ReSet Therapeutics, Inc., priority 2014, published 2015).

Assays:
C57/Bl6J DIO mice [1] = assay: 7 day dosing in diet-induced obesity (DIO) mouse model of type II diabetes; type: in vivo; settings: 30 mg/kg PO QD 7 days (positive control)
Source text: (§1) Male C57/Bl6J DIO mice were obtained from The Jackson Laboratory (Sacramento, Calif.). […] Animals were accustomed to these conditions for at least 2 weeks before experimentation and used at approximately 24 weeks of age.
(§2) Significance was accepted when p<0.05.

C57/Bl6J DIO mice [2] = assay: Increasing dosages of Compound 72 over 7 days in diet-induced obesity (DIO) mouse model; type: in vivo; settings: 30 mg/kg PO QD 7 days
Source text: as §1, §2
Male C57/Bl6J DIO mice were obtained from The Jackson Laboratory (Sacramento, Calif.). […] Animals were accustomed to these conditions for at least 2 weeks before experimentation and used at approximately 26 weeks of age.

[3] = tested on: core clock gene mRNAs in liver; assay: Four day study, liver core clock gene mRNA, ICR mice; type: in vivo, mouse; settings: 50 mg/kg PO BID 4 days, ZT6
Procedure: Male ICR mice (weighing 30-35 g), obtained from Charles River Laboratories (Hollister, Calif.), were used for the experiment following at least 3 days of acclimation. Mice were dosed with vehicle (WFI or 10% Kolliphor) or compound (50 mg/kg, dose volume 5 mL/kg, PO) for 4 days BID (twice a day), beginning in the afternoon of the first day. The last dose of compound or vehicle was administered on the morning of harvest. On the day of harvest (6 hours following the final dose), mice were euthanized by CO2 asphyxiation and 50 mg of liver tissue was excised and placed in a tube containing 500 μl of RNA later.
E.Z.N.A.® HP Total RNA Isolation Kits (R6812-01 and the protocol described in the Manual, Revised 2010) were utilized to prepare and isolate RNA from the liver samples. To prepare the RNA samples, 10-30 mg of sample was removed from RNA-Later and placed in a 1.5 ml microfuge tube. […] The cleared supernatant was transferred by pipetting to a DNA Clearance Column Pre-inserted in a 2 mL Collection Tube. The assembled column was centrifuged at 13,000×g for 1 minute, and the flow-through was saved. An equal volume (700 μl) of 70% ethanol was added to the lysate and mixed. The sample was then applied to a HiBind RNA spin column placed into a 2 ml collection tube, which was centrifuged at 10,000×g for 60 seconds at room temperature. RNA Wash Buffer I (250 μl) was added by pipetting directly onto a new HiBind RNA column inserted in a 2 ml collection tube. The assembled column was centrifuged at 10,000×g for 60 seconds. The RNA column was placed into a new 2 ml collection tube. […] The column with bound RNA was incubated at room temperature (25-30° C.) for 15 minutes. RNA Wash Buffer I (500 μl) was added to the column and placed on a bench top for 2 minutes. After centrifuging at 10,000×g for 60 seconds, discarding the flow-through, 500 μl of RNA Wash Buffer II was added and centrifuged at 10,000×g for 60 seconds. Another 500 μl of RNA Wash Buffer II was added and the column assembly was centrifuged at 10,000×g for 60 seconds. The column was centrifuged for 2 minutes at maximum speed to completely dry the HiBind matrix. The column was placed in a clean 1.5 ml microcentrifuge tube and 40-70 μl of molecular biology grade water is added. After sitting for 1 minute, the column was centrifuged for 2 minutes at maximum speed to elute the RNA. The isolated RNA was collected into the collection tube.
RediPlate 96 RiboGreen RNA Quantification Kit (Invitrogen) RediPlate standard curve was prepared by transferring 20 μl reconstituted RNA standard to a RediPlate well reconstituted in 180 μl RediPlate TE buffer. For liver RNAs prepared from 30-100 mg of tissue using a kit similar to the Omega Bio-Tek HP Total RNA Kit and eluted in RNAse-free water in a volume of 50 μl (microliters), 5 μl of the total RNA is diluted in 195 μl of RediPlate TE buffer (1:40 dilution of RNA), mix. […] Alternatively, one can use the FlexStation 3 with Ex 488 nm and Em 525 nm and a Cutoff of 515 nm.

Procedure for db/db mice: Male db/db mice homozygous for Lepr^db (6 weeks of age), were obtained from The Jackson Laboratory (Bar Harbor, Me.). Mice were group housed on a normal light/dark cycle (lights on: 07:00-19:00 h) with ad libitum access to a standard pelleted mouse diet and water. Animals were accustomed to these conditions for 2 weeks before experimentation. […] At 10:30 pm on the evening prior to endpoint measurement, mice were placed into clean cages and given free access to water, but not food for a period of 12 hours before the fasting blood glucose measurement. On the final day of the study, animals were dosed as normal, and then underwent a tail cut injury 2 hours prior to measurement of fasting blood glucose, to allow recovery from any stress the procedure might cause. Fasting blood glucose (FBG) was assessed from the animals at 10:30 am using an AlphaTRAK glucometer (Abbott Laboratories, USA). Following the FBG measurement blood was collected from each mouse, using a tail milking technique, into a capillary tube. Capillary tubes were centrifuged in a hematocrit (BD Triac 0200) and the resultant plasma transferred to an eppendorff. This sample, labelled as t=0 hr, was frozen at −80° C. to allow later measurement of insulin. At 11:30 am each animal was dosed with 0.5 g/kg of glucose, then blood glucose was measured at t=15, 30, 60, 90 and 120 minutes after glucose load. At the end of the OGTT blood was collected for a t=2 hr insulin determination as described above.
Fasting blood glucose values and glucose measurements taken during the OGTT were averaged and graphed (GraphPad Prism, GraphPad Software, La Jolla, Calif.). The area under the curve (AUC) was calculated for each individual animal. Plasma insulin levels were determined using an Ultrasensitive Insulin ELISA (ALPCO, Salem, N.H.). […] Insulin data was also represented in GraphPad Prism format. Statistical analysis was performed using one-way ANOVA followed by the appropriate post-test. Significance was accepted when p<0.05. Data are presented as mean and S.E.M.

Compound | HOMA-IR (C57/Bl6J DIO mice [1]) | fasting blood glucose (C57/Bl6J DIO mice [1]) | plasma insulin at t=0 (C57/Bl6J DIO mice [1]) | plasma insulin at t=2 hr (C57/Bl6J DIO mice [1]) | fasting blood glucose (C57/Bl6J DIO mice [2]) | HOMA-IR (db/db mice; 30 mg/kg PO QD 7 days) | plasma insulin at t=0 (db/db mice; 30 mg/kg PO QD 7 days) | plasma insulin at t=2 hr (db/db mice; 30 mg/kg PO QD 7 days) | fasting blood glucose (db/db mice; 30 mg/kg PO QD 7 days (positive control)) | liver Per2 expression [3] | Cry2 transcripts in liver [3]
CN(CCOc1ccc(CC2SC(=O)NC2=O)cc1)c1ccccn1 (stereo not drawn) [Rosiglitazone] | 24.60+/−1.42 units | 153.9 ± 5.05 mg/dL | 2.70 ± 0.12 ng/mL | 2.30 ± 0.06 ng/mL | 161.1 ± 8.06 mg/dL | 50.58+/−3.52 units | 3.05 ± 0.14 ng/mL | 2.28 ± 0.08 ng/mL | 280.4 ± 13.66 mg/dL | – | –
COC1CCCN(CC(O)Cn2c3ccc(F)cc3c3cc(F)ccc32)C1=O (stereo not drawn) [Compound 57, 1-(3-(3,6-difluoro-9H-carbazol-9-yl)-2-hydroxypropyl)-3-methoxypiperidin-2-one] | – | – | – | – | – | – | – | – | – | suppression | –
O=C1C2CCC(C2)N1CC(O)Cn1c2ccc(F)cc2c2cc(F)ccc21 (stereo not drawn) [Compound 48, 2-(3-(3,6-difluoro-9H-carbazol-9-yl)-2-hydroxypropyl)-2-azabicyclo[2.2.1]heptan-3-one] | – | – | – | – | – | – | – | – | – | suppression | decrease
